# Laboratory results: ChEMBL document CHEMBL1124628, “Topically active carbonic anhydrase inhibitors. 1. O-acyl derivatives of 6-hydroxybenzothiazole-2-sulfonamide” (J Med Chem, 1989)
# What was measured:
# [1] = In vitro susceptibility to nucleophilic attack by reduced glutathione at 37 degree C and at pH 7.4; assay type: ADME
# [2] = Cleavage by corneal esterase at 37 degree C and at pH 7.4; assay type: ADME, tissue-based, Cornea
# Oryctolagus cuniculus [3] = species on record: Oryctolagus cuniculus; assay: Corneal penetration rate constant (k) for excised denuded cornea of albino rabbit; assay type: functional
# Oryctolagus cuniculus [4] = species on record: Oryctolagus cuniculus; assay: Corneal penetration rate constant (k) for excised intact cornea of albino rabbit; assay type: functional
# Oryctolagus cuniculus [5] = species on record: Oryctolagus cuniculus; assay: Change in intraocular pressure in Albino rabbit when 1% suspension of compound bilaterally instilled in a single dose of 50 microL determined by recovery rate assay; assay type: functional, Eye
# Oryctolagus cuniculus [6] = species on record: Oryctolagus cuniculus; assay: Change in intraocular pressure in Albino rabbit when 10% of compound suspension bilaterally instilled in 3 doses of 20, 15 and 15 microL at 5 minute intervals determined by recovery rate assay; assay type: functional, Eye
# Oryctolagus cuniculus [7] = species on record: Oryctolagus cuniculus; assay: Change in intraocular pressure in Albino rabbit when 2% suspension of compound bilaterally instilled in a single dose of 50 microL determined by recovery rate assay; assay type: functional, Eye
# Oryctolagus cuniculus [8] = species on record: Oryctolagus cuniculus; assay: Change in intraocular pressure in Albino rabbit when 5% of compound suspension bilaterally instilled in 3 doses of 20, 15 and 15 microL at 5 minute intervals determined by recovery rate assay; assay type: functional, Eye
# Oryctolagus cuniculus [9] = assay: Maximum decrease in intraocular pressure in Albino rabbit during 5 hours observation period after topical instillation of 0.5% suspension in alpha-Chymotrypsin assay; assay type: functional, Eye
# Oryctolagus cuniculus [10] = assay: Maximum decrease in intraocular pressure in Albino rabbit during 5 hours observation period after topical instillation of 1% suspension in alpha-Chymotrypsin assay; assay type: functional, Eye
# Oryctolagus cuniculus [11] = assay: Maximum decrease in intraocular pressure in Albino rabbit during 5 hours observation period after topical instillation of 5% suspension in alpha-Chymotrypsin assay; assay type: functional, Eye
# Carbonic anhydrase 2 [12] = target: T1, Carbonic anhydrase 2 (Homo sapiens, UniProt P00918)
# Description: In vitro inhibition of human Carbonic Anhydrase II
# Carbonic anhydrase 2 [13] = target: T1, Carbonic anhydrase 2; assay: In vitro inhibitory activity against human Carbonic anhydrase II; details: read-out: I50
# Oryctolagus cuniculus [14] = assay: Maximum decrease in intraocular pressure in Albino rabbit during 5 hours observation period after topical instillation of 0.5% suspension; assay type: functional, Eye
# Oryctolagus cuniculus [15] = assay: Maximum decrease in intraocular pressure in Albino rabbit during 5 hours observation period after topical instillation of 1% suspension; assay type: functional, Eye
# Oryctolagus cuniculus [16] = species on record: Oryctolagus cuniculus; assay: Change in intraocular pressure in Albino rabbit when 2% of compound suspension instilled in a single dose of 50 microL determined by recovery rate assay
# Oryctolagus cuniculus [17] = species on record: Oryctolagus cuniculus; assay: % change in intraocular pressure in Albino rabbit when 10% suspension bilaterally instilled in 3 divided doses of 20, 15 and 15 microL at 5 minute intervals determined by recovery rate assay; assay type: functional
# Oryctolagus cuniculus [18] = assay: Maximum decrease in intraocular pressure in Albino rabbit during 5 hours observation period after topical instillation of 5% suspension; assay type: functional, Eye
structure (smiles),measurement,setting,value
CC(C)C(=O)Oc1ccc2nc(S(N)(=O)=O)sc2c1,Reaction,[1],50%
same,half-life,[2],9 min
same,K,Oryctolagus cuniculus [3],0.0162 h⁻¹
same,K,Oryctolagus cuniculus [4],0.045 h⁻¹
same,Change,Oryctolagus cuniculus [5],-38%
same,Change,Oryctolagus cuniculus [6],-30%
same,Change,Oryctolagus cuniculus [7],-48%
same,Change,Oryctolagus cuniculus [8],-33%
same,Pressure,Oryctolagus cuniculus [9],-9.3 mmHg
same,Pressure,Oryctolagus cuniculus [10],-6.8 mmHg
same,Pressure,Oryctolagus cuniculus [11],-6.2 mmHg
same,IC50,Carbonic anhydrase 2 [12],6.8 nM
CC(C)(C)C(=O)Nc1c(OC(=O)C(C)(C)C)ccc2nc(S(N)(=O)=O)sc12,IC50,Carbonic anhydrase 2 [12],32 nM
CCOCCOCCOC(C)(C)C(=O)Oc1ccc2nc(S(N)(=O)=O)sc2c1,Change,Oryctolagus cuniculus [6],-22%
same,Change,Oryctolagus cuniculus [7],-21%
same,Pressure,Oryctolagus cuniculus [10],-9 mmHg
same,IC50,Carbonic anhydrase 2 [12],3.2 nM
CCOc1ccc2nc(S(N)(=O)=O)sc2c1 [ETHOXZOLAMIDE],Reaction,[1],36%
NS(=O)(=O)c1nc2ccc(OC(=O)/C=C/c3ccccc3)cc2s1,IC50,Carbonic anhydrase 2 [13],15 nM
CC(C)(C)OC(=O)Oc1ccc2nc(S(N)(=O)=O)sc2c1,IC50,Carbonic anhydrase 2 [12],10 nM
CC(=O)/N=c1/sc(S(N)(=O)=O)nn1C [METHAZOLAMIDE],Reaction,[1],27%
same,K,Oryctolagus cuniculus [4],0.0041 h⁻¹
CCCC(=O)Oc1ccc2sc(S(N)(=O)=O)nc2c1,Change,Oryctolagus cuniculus [6],-54%
same,IC50,Carbonic anhydrase 2 [12],4 nM
CC(C)(C)C(=O)Oc1ccc2nc(S(N)(=O)=O)sc2c1,Reaction,[1],50%
same,half-life,[2],38 min
same,Change,Oryctolagus cuniculus [5],-16%
same,Change,Oryctolagus cuniculus [6],-47%
same,Change,Oryctolagus cuniculus [7],-30%
same,Change,Oryctolagus cuniculus [8],-41%
same,Pressure,Oryctolagus cuniculus [9],-6.5 mmHg
same,Pressure,Oryctolagus cuniculus [10],-8.2 mmHg
same,Pressure,Oryctolagus cuniculus [11],-9.2 mmHg
CC(=O)Oc1ccc2nc(S(N)(=O)=O)sc2c1,half-life,[2],22 min
same,K,Oryctolagus cuniculus [3],0.0217 h⁻¹
same,K,Oryctolagus cuniculus [4],0.0165 h⁻¹
same,Change,Oryctolagus cuniculus [5],-10%
same,Change,Oryctolagus cuniculus [6],-47%
same,Change,Oryctolagus cuniculus [7],-35%
same,Change,Oryctolagus cuniculus [8],-42%
same,Pressure,Oryctolagus cuniculus [10],-8.8 mmHg
same,IC50,Carbonic anhydrase 2 [12],2 nM
NS(=O)(=O)c1nc2ccc(OC(=O)CC3CCCC3)cc2s1,IC50,Carbonic anhydrase 2 [13],6 nM
CCCC(=O)Oc1ccc2nc(S(N)(=O)=O)sc2c1,half-life,[2],6 min
same,K,Oryctolagus cuniculus [3],0.0202 h⁻¹
same,K,Oryctolagus cuniculus [4],0.054 h⁻¹
same,Change,Oryctolagus cuniculus [5],-25%
same,Change,Oryctolagus cuniculus [6],-50%
same,Change,Oryctolagus cuniculus [7],-30%
same,Change,Oryctolagus cuniculus [8],-46%
same,Pressure,Oryctolagus cuniculus [9],-5.5 mmHg
same,Pressure,Oryctolagus cuniculus [10],-6.8 mmHg
same,IC50,Carbonic anhydrase 2 [12],3.2 nM
CCCCCCCC(=O)Oc1ccc2nc(S(N)(=O)=O)sc2c1,IC50,Carbonic anhydrase 2 [13],1.6 nM
same,Change,Oryctolagus cuniculus [6],-33%
same,Change,Oryctolagus cuniculus [7],-16%
same,Change,Oryctolagus cuniculus [8],-29%
same,Pressure,Oryctolagus cuniculus [10],-5 mmHg
CCOP(=O)(OCC)Oc1ccc2nc(S(N)(=O)=O)sc2c1,Change,Oryctolagus cuniculus [6],-22%
same,IC50,Carbonic anhydrase 2 [12],1.8 nM
CN(C)Cc1ccc(C(=O)Oc2ccc3nc(S(N)(=O)=O)sc3c2)cc1,IC50,Carbonic anhydrase 2 [13],4 nM
CCCCCC(=O)Oc1ccc2nc(S(N)(=O)=O)sc2c1,half-life,[2],2 min
same,K,Oryctolagus cuniculus [3],0.0182 h⁻¹
same,K,Oryctolagus cuniculus [4],0.0152 h⁻¹
same,IC50,Carbonic anhydrase 2 [12],4 nM
NS(=O)(=O)c1nc2ccc(O)cc2s1,Reaction,[1],27%
NS(=O)(=O)c1nc2cc(O)ccc2s1,IC50,Carbonic anhydrase 2 [12],5 nM
NS(=O)(=O)c1nc2ccc(OC(=O)Cc3ccccc3)cc2s1,IC50,Carbonic anhydrase 2 [13],30 nM
same,Change,Oryctolagus cuniculus [6],-48%
same,Change,Oryctolagus cuniculus [7],13%
same,Change,Oryctolagus cuniculus [8],4%
same,Pressure,Oryctolagus cuniculus [9],-2.5 mmHg
same,Pressure,Oryctolagus cuniculus [10],-6.8 mmHg
COCCOC(C)(C)C(=O)Oc1ccc2nc(S(N)(=O)=O)sc2c1,half-life,[2],72 min
same,K,Oryctolagus cuniculus [3],0.015 h⁻¹
same,K,Oryctolagus cuniculus [4],0.0097 h⁻¹
same,IC50,Carbonic anhydrase 2 [12],1.4 nM
CCN(CC)CC1CCC(C(=O)Oc2ccc3nc(S(N)(=O)=O)sc3c2)CC1 (configuration not stated),IC50,Carbonic anhydrase 2 [12],2.8 nM
NS(=O)(=O)c1nc2ccc(OC(=O)c3ccccc3)cc2s1,Reaction,[1],50%
same,half-life,[2],30 min
same,IC50,Carbonic anhydrase 2 [13],8 nM
same,K,Oryctolagus cuniculus [3],0.0152 h⁻¹
same,K,Oryctolagus cuniculus [4],0.035 h⁻¹
same,Change,Oryctolagus cuniculus [6],-25%
same,Change,Oryctolagus cuniculus [8],11%
COCC(=O)Oc1ccc2nc(S(N)(=O)=O)sc2c1,IC50,Carbonic anhydrase 2 [12],3.5 nM
CCCCCCCCCCCC(=O)Oc1ccc2nc(S(N)(=O)=O)sc2c1,IC50,Carbonic anhydrase 2 [13],3.1 nM
same,Change,Oryctolagus cuniculus [6],-25%
NS(=O)(=O)c1nc2ccc(OC(=O)Cc3ccc(Cl)cc3)cc2s1,IC50,Carbonic anhydrase 2 [13],10 nM
CC(C)(C)C(=O)Oc1ccc2nc(S(N)(=O)=O)sc2c1N,IC50,Carbonic anhydrase 2 [13],25 nM
CN(C)C(=O)Oc1ccc2nc(S(N)(=O)=O)sc2c1,Change,Oryctolagus cuniculus [6],-32%
same,Change,Oryctolagus cuniculus [8],2%
same,IC50,Carbonic anhydrase 2 [12],1.6 nM
Cn1cccc1C(=O)Oc1ccc2nc(S(N)(=O)=O)sc2c1,Change,Oryctolagus cuniculus [6],-12%
same,IC50,Carbonic anhydrase 2 [12],2.9 nM
CN(C)OS(=O)(=O)c1ccc2nc(S(N)(=O)=O)sc2c1,IC50,Carbonic anhydrase 2 [12],1.2 nM
COc1cccc(OC)c1C(=O)Oc1ccc2nc(S(N)(=O)=O)sc2c1,IC50,Carbonic anhydrase 2 [12],4 nM
CC(C)COC(=O)Oc1ccc2nc(S(N)(=O)=O)sc2c1,Reaction,[1],50%
same,half-life,[2],7 min
same,K,Oryctolagus cuniculus [3],0.0212 h⁻¹
same,K,Oryctolagus cuniculus [4],0.0812 h⁻¹
same,Change,Oryctolagus cuniculus [6],-46%
same,Change,Oryctolagus cuniculus [8],-54%
same,Pressure,Oryctolagus cuniculus [14],-5.7 mmHg
same,Pressure,Oryctolagus cuniculus [15],-6.7 mmHg
same,IC50,Carbonic anhydrase 2 [12],2.2 nM
same,Change,Oryctolagus cuniculus [16],-22%
CCOC(=O)Oc1ccc2nc(S(N)(=O)=O)sc2c1,half-life,[2],19 min
same,K,Oryctolagus cuniculus [3],0.0145 h⁻¹
same,K,Oryctolagus cuniculus [4],0.0402 h⁻¹
same,Change,Oryctolagus cuniculus [17],-29%
same,Pressure,Oryctolagus cuniculus [18],-5.5 mmHg
same,IC50,Carbonic anhydrase 2 [12],6.8 nM
CC(=O)Nc1nnc(S(N)(=O)=O)s1 [ACETAZOLAMIDE],Reaction,[1],3%
COC(C)(C)C(=O)Oc1ccc2nc(S(N)(=O)=O)sc2c1,half-life,[2],36 min
same,K,Oryctolagus cuniculus [3],0.019 h⁻¹
same,K,Oryctolagus cuniculus [4],0.0222 h⁻¹
same,IC50,Carbonic anhydrase 2 [12],1.2 nM
NS(=O)(=O)c1nc2ccc(OC(=O)C3CCCCC3)cc2s1,Reaction,[1],50%
same,half-life,[2],2 min
same,K,Oryctolagus cuniculus [3],0.0175 h⁻¹
same,K,Oryctolagus cuniculus [4],0.0712 h⁻¹
same,Change,Oryctolagus cuniculus [6],-34%
same,Pressure,Oryctolagus cuniculus [9],-4.6 mmHg
same,Pressure,Oryctolagus cuniculus [10],-9.8 mmHg
same,IC50,Carbonic anhydrase 2 [12],6 nM
CCOC(C)(C)C(=O)Oc1ccc2nc(S(N)(=O)=O)sc2c1,half-life,[2],64 min
same,K,Oryctolagus cuniculus [3],0.0162 h⁻¹
same,K,Oryctolagus cuniculus [4],0.0373 h⁻¹
same,IC50,Carbonic anhydrase 2 [12],1.2 nM
CN(C)c1ccc(C(=O)Oc2ccc3nc(S(N)(=O)=O)sc3c2)cc1,IC50,Carbonic anhydrase 2 [13],60 nM
same,Change,Oryctolagus cuniculus [6],7%
